This data set relates to rat liver. Description: 13C MR spectra in rat liver after intravenous injection of hyperpolarised solution. Particulars: 1 ml of 42 mM solution, 9.4T MRI. From the text:
The data was acquired in preclinical horizontal-bore 9.4T MRI system using a 10-mm diameter 13C surface coil and a series of 20-degree radiofrequency pulses applied every 2 s.

`CC(O)[13C](=O)O` (stereo not shown) [[1-13C]lactate, [1-13C]lactic acid]: the “downstream metabolites detected in 13C MR spectra” value is reported as “downstream metabolites could be detected”.

(Values after US20240366801A1, “HYPERPO[…] AND PRODUCT” (CAMBRIDGE ENTERPRISE LIMITED, priority 2021, published 2024).)
